Assay results from patent US20120083522A1, “MODULATION OF INFLAMMATORY RESPONSES BY FACTOR XI” (Isis Pharmaceuitcals, inc., priority 2009, published 2012).
e = 2'-O-(2-methoxyethyl) (MOE); d = 2'-deoxy (DNA)

Assays:
human Factor XI mRNA [1] = assay: Dose-dependent antisense inhibition in HepG2 cells, lipofectin (Example 2); format: cell-based; settings: approximately 16 hours
Protocol: Cells were plated at a density of 10,000 cells per well and transfected using lipofectin reagent with 9.375 nM, 18.75 nM, 37.5 nM, 75 nM, and 150 nM concentrations of antisense oligonucleotide, as specified in Table 3. After a treatment period of approximately 16 hours, RNA was isolated from the cells and Factor XI mRNA levels were measured by quantitative real-time PCR. Human Factor XI primer probe set RTS 2966 (forward sequence: […], incorporated herein as SEQ ID NO: 3; reverse sequence: […], incorporated herein as SEQ ID NO: 4; probe sequence: TTGTCTACTGAAGCACACCCAAACAGGGAX, wherein X is the fluorophore, incorporated herein as SEQ ID NO: 5) was used to measure mRNA levels. Factor XI mRNA levels were adjusted according to total RNA content, as measured by RIBOGREEN®. Results are presented as percent inhibition of Factor XI, relative to untreated control cells.

human Factor XI mRNA [2] = assay: Antisense inhibition in HepG2 cells by microwalk gapmers, 75 nM, lipofectin (Example 3); format: cell-based; settings: HepG2 cells, 75 nM, oligonucleotides targeted to nucleobases 1275 to 1318 of SEQ ID NO: 1
Procedure, shortened: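 HepG2 cells (10,000 per well) were transfected with 75 nM gapmer using lipofectin and treated for about 24 h. Factor XI mRNA was quantified by real-time PCR, normalized to RiboGreen total RNA and expressed as percent inhibition versus untreated controls.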

human Factor XI mRNA [3] = assay: Antisense inhibition in HepG2 cells by microwalk gapmers, 8,000 nM, electroporation (Example 14); format: cell-based; settings: HepG2 cells, 8,000 nM
Procedure, shortened: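 Percent reduction of Factor XI transcript, relative to untreated controls, by real-time PCR with RIBOGREEN normalisation. Readout taken about 24 h after electroporating HepG2 cells with 8,000 nM oligonucleotide. Gapmers are 5-10-5, 5-8-5 or 6-8-6 MOE wings, phosphorothioate backbone.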

[4] = design: species or system Sprague-Dawley rats; settings: rat, in vivo, sc, 20 mg/kg
Protocol: The concentration of the full-length oligonucleotide as well as the total oligonucleotide concentration (including the degraded form) was measured. The method used is a modification of previously published methods (Leeds et al., 1996; Geary et al., 1999) which consist of a phenol-chloroform (liquid-liquid) extraction followed by a solid phase extraction. An internal standard (ISIS 355868, a 27-mer 2′-O-methoxyethyl modified phosphorothioate oligonucleotide, […], designated herein as SEQ ID NO: 270) was added prior to extraction. […] The results are presented in Tables 98 and 99, expressed as μg/g liver or kidney tissue.

Substance | percent inhibition of Factor XI (human Factor XI mRNA [1]; 9.375 nM) | percent inhibition of Factor XI (human Factor XI mRNA [1]; 18.75 nM) | percent inhibition of Factor XI (human Factor XI mRNA [1]; 37.5 nM) | percent inhibition of Factor XI (human Factor XI mRNA [1]; 75 nM) | percent inhibition of Factor XI (human Factor XI mRNA [1]; 150 nM) | % inhibition of human Factor XI mRNA levels (human Factor XI mRNA [2]) | Percent inhibition of human Factor XI mRNA levels (human Factor XI mRNA [3]) | Half-life in the liver and kidney [4]
412223 (antisense ACAGTTTCTGGCAGGCCTCG; sugars from the 5' end e5 d10 e5, backbone and methylation of C not given here) [compound 412223] | 33% | 48% | 62% | 76% | 81% | 85% | 62% | 22 days
412224 (antisense GCATTGGTGCACAGTTTCTG; sugars from the 5' end e5 d10 e5, backbone and methylation of C not given here) [compound 412224] | 24% | 45% | 57% | 70% | 81% | 93% | 84% | 17 days
412225 (antisense GCAGCGGACGGCATTGGTGC; sugars from the 5' end e5 d10 e5, backbone and methylation of C not given here) [compound 412225] | 32% | 42% | 65% | 78% | 73% | 86% | 86% | 21 days
